Test results taken from US20240368150A1 (Hoffmann-La Roche Inc., priority 2021, published 2024).
Where two headings read alike, the source gives them in different places.

How the values were obtained:
hDGKalpha(1-735)-N-His = hDGKalpha(1-735)-N-His (Homo sapiens (Human), UniProt P23743); assay: DGKalpha ADP Glo assay (in vitro DGK inhibition); assay type: biochemical; settings: DLG 125 uM, ATP 25 μM, DGK α 4 nM, 1 hour reaction
Protocol: (§1) DGK α and ζ kinase use ATP to phosphorylate the substrate 1,2-dilauroyl-sn-glycerol (DLG, incorporated in the liposomes). ATP is converted to ADP as a result of this enzymatic reaction. After the kinase reaction, an ATP-depletion reagent is added to terminate the kinase reaction and deplete any remaining ATP, leaving only ADP. Second, a detection reagent is added to simultaneously convert ADP to ATP and allow the newly synthesized ATP to be converted to light using a coupled luciferase/luciferin reaction.
(§2) Purification of both enzymes was performed as previously described by Takahashi et al., PeerJ, 2018 (Takahashi, D.; Sakane, F. Expression and purification of human diacylglycerol kinase alpha from baculovirus-infected insect cells for structural studies. PeerJ 2018, 6, No. e5449).
(§3) A concentrated liposome solution was prepared in assay buffer without DTT and BSA: 2 mM of DLG in 21 mM of total liposome (2 mM DLG/8 mM PS/11 mM PC). […] The reactions were started by addition of DGK α and ζ kinases at 4 nM and 2 nM final concentrations, respectively. After 1 hour reaction, the amount of ADP formed was detected with the ADP-Glo kinase assay (Promega) according to the manufacturer instructions. Compounds were added in 11-points dose response, starting at […], 1:3 dilutions, with a final DMSO concentration of 2%. The multidrop combi was used as a liquid handler and luminescence was read with 0.5 s by the envision reader (PE).

hDGKzeta(1-928)-N-His = hDGKzeta(1-928)-N-His (Homo sapiens (Human), UniProt Q13574); assay: DGKzeta ADP Glo assay (in vitro DGK inhibition); assay type: biochemical; settings: DLG 125 uM, ATP 50 μM, DGK ζ 2 nM, 1 hour reaction
hDGKzeta(1-928)-N-His, sequence (Q13574 whole entry): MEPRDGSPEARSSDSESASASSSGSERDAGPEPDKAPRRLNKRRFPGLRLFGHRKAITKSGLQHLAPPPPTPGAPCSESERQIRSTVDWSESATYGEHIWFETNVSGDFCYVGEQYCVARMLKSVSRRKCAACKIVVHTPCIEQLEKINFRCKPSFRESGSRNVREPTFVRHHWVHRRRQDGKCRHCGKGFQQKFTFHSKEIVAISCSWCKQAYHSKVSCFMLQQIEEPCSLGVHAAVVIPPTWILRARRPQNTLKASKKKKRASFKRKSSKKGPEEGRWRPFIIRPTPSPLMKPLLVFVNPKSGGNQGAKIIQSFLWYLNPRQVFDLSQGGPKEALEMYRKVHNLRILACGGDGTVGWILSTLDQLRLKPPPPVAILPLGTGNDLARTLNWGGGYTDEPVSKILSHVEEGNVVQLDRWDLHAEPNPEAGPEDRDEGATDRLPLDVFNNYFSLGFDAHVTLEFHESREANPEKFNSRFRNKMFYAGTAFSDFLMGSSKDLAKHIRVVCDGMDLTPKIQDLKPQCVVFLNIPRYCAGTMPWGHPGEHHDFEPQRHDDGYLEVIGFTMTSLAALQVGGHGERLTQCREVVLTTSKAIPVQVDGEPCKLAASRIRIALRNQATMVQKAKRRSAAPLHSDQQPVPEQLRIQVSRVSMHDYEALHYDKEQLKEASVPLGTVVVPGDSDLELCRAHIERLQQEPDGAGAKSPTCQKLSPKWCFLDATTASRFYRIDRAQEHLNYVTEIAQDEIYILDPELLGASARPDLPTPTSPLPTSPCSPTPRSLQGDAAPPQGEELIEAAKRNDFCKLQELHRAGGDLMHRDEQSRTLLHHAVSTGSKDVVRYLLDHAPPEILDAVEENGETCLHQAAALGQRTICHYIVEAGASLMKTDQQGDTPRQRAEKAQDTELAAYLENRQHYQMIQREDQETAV
Protocol: as §1, §2, §3

primary human T-cells [1] = assay: Proliferation assay after 5 days (CellTiter-Glo, CD3 stimulation; PBS counter screen); assay type: cell-based; settings: CD3 stimulation; for Emax proliferation (% activation) / Emax: 5 days, normalized to reference compound A1 as stimulator control = 100%, DMSO neutral control; for EC50: primary human T-cells, CellTiter-Glo after 5 days, EC50 of fitted sigmoidal curve, read-out: Tcell Proliferation CD3 EC50; for Emax: read-out: Emax proliferation (% activation)
Summary of the method: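 Proliferation is measured 5 days post-treatment as ATP-dependent luminescence. Flags mark compounds that activated unstimulated cells or harmed viability.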

MV-3 cells = assay: T-cell - TCB - MV3 killing assay (MCSP-TCB, RFP object count by Incucyte); assay type: cell-based, human; settings: 5 d; for Emax / MSCP TCB killing MV-3 cells 5 d Emax: normalized: MCSP-TCB only = neutral control, 20 μM reference compound A1 = 100%; for Emax: read-out: MSCP TCB killing MV-3 cells 5 d Emax; for EC50: primary human T-cells + MCSP-TCB, MV-3 RFP cells, read-out: MSCP TCB killing MV-3 cells 5 d EC50
primary human T-cells [2] = test system: primary human T-cells

hDGKalpha(1-735)-N-His, sequence (P23743 whole entry): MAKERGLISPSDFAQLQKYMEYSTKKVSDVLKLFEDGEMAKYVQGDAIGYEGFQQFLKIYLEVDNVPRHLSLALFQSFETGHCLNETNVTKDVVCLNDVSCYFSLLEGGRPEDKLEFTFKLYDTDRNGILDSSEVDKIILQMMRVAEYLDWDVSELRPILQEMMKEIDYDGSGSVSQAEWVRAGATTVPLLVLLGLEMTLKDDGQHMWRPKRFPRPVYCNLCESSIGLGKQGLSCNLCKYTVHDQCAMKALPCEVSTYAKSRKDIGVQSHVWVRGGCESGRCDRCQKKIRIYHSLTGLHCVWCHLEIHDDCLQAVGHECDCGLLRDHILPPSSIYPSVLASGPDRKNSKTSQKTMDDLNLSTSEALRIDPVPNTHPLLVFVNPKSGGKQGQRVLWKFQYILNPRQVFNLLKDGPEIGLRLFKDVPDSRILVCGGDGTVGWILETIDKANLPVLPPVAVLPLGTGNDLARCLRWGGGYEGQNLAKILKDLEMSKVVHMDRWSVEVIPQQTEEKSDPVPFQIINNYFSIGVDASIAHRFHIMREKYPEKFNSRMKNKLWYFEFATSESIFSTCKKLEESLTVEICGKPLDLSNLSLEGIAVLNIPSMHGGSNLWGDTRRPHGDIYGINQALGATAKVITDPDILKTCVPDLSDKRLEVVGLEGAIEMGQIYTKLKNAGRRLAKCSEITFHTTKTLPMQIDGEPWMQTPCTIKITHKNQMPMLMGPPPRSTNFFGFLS

Compound: CC(C)(C)c1nnc(-c2cc3c(cc2F)S(=N)(=O)C[C@H](N)C(=O)N3Cc2ccc(OC(F)(F)F)cc2)o1 (single isomer, unassigned) [Example 517]
- IC50 (hDGKalpha(1-735)-N-His): 272 nM
- IC50 (hDGKzeta(1-928)-N-His): 316 nM
- Emax proliferation (% activation) (primary human T-cells [1]): 90 % activation
- EC50 (primary human T-cells [1]): 2930 nM
- Emax (MV-3 cells; Homo sapiens, MV-3, 120 h): 79%
- EC50 (MV-3 cells): 330 nM
- EC50 (primary human T-cells [2]): 299 nM

Compound: CC(C)(C)c1nnc(-c2cc3c(cc2F)S(=N)(=O)C[C@H](N)C(=O)N3Cc2ccc(OC(F)(F)F)cc2)o1 (single isomer, unassigned) [Example 518]
- IC50 (hDGKalpha(1-735)-N-His): 442 nM
- IC50 (hDGKzeta(1-928)-N-His): 639 nM
- Emax proliferation (% activation) (primary human T-cells [1]): 58 % activation
- EC50 (primary human T-cells [1]): 9070 nM
- MSCP TCB killing MV-3 cells 5 d Emax (MV-3 cells): 78%
- EC50 (MV-3 cells): 960 nM
- EC50 (primary human T-cells [2]): 135 nM

Compound: N[C@H]1C[S+]([O-])c2cc(F)c(-c3noc(N4CCOC5CC54)n3)cc2N(Cc2ccc(Cl)cc2)C1=O (single isomer, unassigned; epimer a) [Example 207]
- IC50 (hDGKalpha(1-735)-N-His): > 62500 nM
- IC50 (hDGKzeta(1-928)-N-His): 193 nM
- Emax proliferation (% activation) (primary human T-cells [1]): 280 % activation
- EC50 (primary human T-cells [1]): 1860 nM
- Emax (MV-3 cells; Homo sapiens, MV-3, 120 h): 90%
- EC50 (MV-3 cells; Homo sapiens, MV-3, 120 h): 160 nM
- EC50 (primary human T-cells [2]): 4380 nM

Compound: CC(C)(C)c1nnc(-c2cc3c(cc2F)[S+]([O-])C[C@H](N)C(=O)N3Cc2ccc(OC(F)(F)F)cc2)o1 (single isomer, unassigned; epimer a) [Example 452]
- IC50 (hDGKalpha(1-735)-N-His): 340 nM
- IC50 (hDGKzeta(1-928)-N-His): 400 nM
- Emax proliferation (% activation) (primary human T-cells [1]): 165 % activation
- EC50 (primary human T-cells [1]; Homo sapiens, T-cell, 120 h): 468 nM
- MSCP TCB killing MV-3 cells 5 d Emax (MV-3 cells): 81%
- EC50 (MV-3 cells): 230 nM
- EC50 (primary human T-cells [2]): 121 nM

Compound: CC(C)(C)n1nnc(-c2cc3c(cc2F)S(=O)(=O)C[C@H](NC(=O)CN)C(=O)N3Cc2ccc(Cl)cc2)n1 [Example 29, 2-amino-N-[(3R)-7-(2-tert-butyltetrazol-5-yl)-5-[(4-chlorophenyl)methyl]-8-fluoro-1,1,4-trioxo-2,3-dihydro-1lambda6,5-benzothiazepin-3-yl]acetamide]
- IC50 (hDGKalpha(1-735)-N-His): > 62500 nM
- IC50 (hDGKzeta(1-928)-N-His): 33100 nM
- Emax (primary human T-cells [1]; Homo sapiens, T-cell, 120 h): 172%
- EC50 (primary human T-cells [1]; Homo sapiens, T-cell, 120 h): 93.6 nM
- Emax (MV-3 cells; Homo sapiens, MV-3, 120 h): 95%
- EC50 (MV-3 cells; Homo sapiens, MV-3, 120 h): 37 nM
- EC50 (primary human T-cells [2]): 855 nM

Compound: N[C@H]1CS(=O)(=O)c2ccc(-c3nnc(C4CCCC(F)(F)C4)o3)cc2N(Cc2ccc(Cl)cc2)C1=O (stereo partly drawn) [Example 373, (3R)-3-amino-5-[(4-chlorophenyl)methyl]-7-[5-(3,3-difluorocyclohexyl)-1,3,4-oxadiazol-2-yl]-1,1-dioxo-2,3-dihydro-1λ^6,5-benzothiazepin-4-one]
- IC50 (hDGKalpha(1-735)-N-His): 1400 nM
- IC50 (hDGKzeta(1-928)-N-His): 644 nM
- Emax (primary human T-cells [1]; Homo sapiens, T-cell, 120 h): 100%
- EC50 (primary human T-cells [1]; Homo sapiens, T-cell, 120 h): 556 nM
- EC50 (primary human T-cells [2]): 1160 nM

Compound: Cc1cc(S(C)(=O)=O)ccc1-c1nnc(-c2ccc3c(c2)N(Cc2ccc(Cl)cc2)C(=O)[C@@H](N)CS3(=O)=O)o1 [Example 379, (3R)-3-amino-5-[(4-chlorophenyl)methyl]-7-[5-(2-methyl-4-methylsulfonyl-phenyl)-1,3,4-oxadiazol-2-yl]-1,1-dioxo-2,3-dihydro-1λ^6,5-benzothiazepin-4-one]
- IC50 (hDGKalpha(1-735)-N-His): 42700 nM
- IC50 (hDGKzeta(1-928)-N-His): 1300 nM
- Emax (primary human T-cells [1]; Homo sapiens, T-cell, 120 h): 69%
- EC50 (primary human T-cells [1]; Homo sapiens, T-cell, 120 h): 4850 nM
- EC50 (primary human T-cells [2]): 2090 nM

Compound: COCCN1CCCC(F)(c2nnc(-c3ccc4c(c3)N(Cc3ccc(Cl)cc3)C(=O)[C@@H](N)CS4(=O)=O)o2)C1 (stereo partly drawn) [Example 386, (3R)-3-amino-5-[(4-chlorophenyl)methyl]-7-[5-[3-fluoro-1-(2-methoxyethyl)-3-piperidyl]-1,3,4-oxadiazol-2-yl]-1,1-dioxo-2,3-dihydro-1λ^6,5-benzothiazepin-4-one]
- IC50 (hDGKalpha(1-735)-N-His): 3570 nM
- IC50 (hDGKzeta(1-928)-N-His): 778 nM
- Emax (primary human T-cells [1]; Homo sapiens, T-cell, 120 h): 108%
- EC50 (primary human T-cells [1]; Homo sapiens, T-cell, 120 h): 2270 nM
- EC50 (primary human T-cells [2]): 4870 nM

Compound: Cc1ccc(-c2nnc(-c3ccc4c(c3)N(Cc3ccc(Cl)cc3)C(=O)[C@@H](N)CS4(=O)=O)o2)cn1 [Example 390, (3R)-3-amino-5-[(4-chlorophenyl)methyl]-7-[5-(6-methyl-3-pyridyl)-1,3,4-oxadiazol-2-yl]-1,1-dioxo-2,3-dihydro-1λ^6,5-benzothiazepin-4-one]
- IC50 (hDGKalpha(1-735)-N-His): 38500 nM
- IC50 (hDGKzeta(1-928)-N-His): 2630 nM
- Emax (primary human T-cells [1]; Homo sapiens, T-cell, 120 h): 69%
- EC50 (primary human T-cells [1]; Homo sapiens, T-cell, 120 h): 4510 nM
- EC50 (primary human T-cells [2]): > 10000 nM

Compound: N[C@H]1CS(=O)(=O)c2ccc(-c3nnc(N4[C@@H]5CC[C@H]4COC5)o3)cc2N(Cc2ccc(Cl)cc2)C1=O [Example 407, (3R)-3-amino-5-[(4-chlorophenyl)methyl]-7-[5-[(1R,5S)-3-oxa-8-azabicyclo[3.2.1]octan-8-yl]-1,3,4-oxadiazol-2-yl]-1,1-dioxo-2,3-dihydro-1λ^6,5-benzothiazepin-4-one]
- IC50 (hDGKalpha(1-735)-N-His): 1420 nM
- IC50 (hDGKzeta(1-928)-N-His): 2660 nM
- Emax (primary human T-cells [1]; Homo sapiens, T-cell, 120 h): 96%
- EC50 (primary human T-cells [1]; Homo sapiens, T-cell, 120 h): 2810 nM
- EC50 (primary human T-cells [2]): > 10000 nM

Compound: CC(C)(C)c1nnc(-c2ccc3c(c2)N(Cc2ccc(Oc4ccccc4)cc2)C(=O)[C@@H](N)CS3(=O)=O)o1 [Example 438, (3R)-3-amino-7-(5-tert-butyl-1,3,4-oxadiazol-2-yl)-1,1-dioxo-5-[(4-phenoxyphenyl)methyl]-2,3-dihydro-1λ^6,5-benzothiazepin-4-one]
- IC50 (hDGKalpha(1-735)-N-His): 797 nM
- IC50 (hDGKzeta(1-928)-N-His): 1340 nM
- Emax (primary human T-cells [1]; Homo sapiens, T-cell, 120 h): 78%
- EC50 (primary human T-cells [1]; Homo sapiens, T-cell, 120 h): 246 nM
- EC50 (primary human T-cells [2]): 700 nM

Compound: CC(C)(C)c1nnc(-c2ccc3c(c2)N(Cc2ccc(OC(F)(F)C(F)F)cc2)C(=O)[C@@H](N)CS3(=O)=O)o1 [Example 442, (3R)-3-amino-7-(5-tert-butyl-1,3,4-oxadiazol-2-yl)-1,1-dioxo-5-[[4-(1,1,2,2-tetrafluoroethoxy)phenyl]methyl]-2,3-dihydro-1λ^6,5-benzothiazepin-4-one]
- IC50 (hDGKalpha(1-735)-N-His): 1390 nM
- IC50 (hDGKzeta(1-928)-N-His): 285 nM
- Emax (primary human T-cells [1]; Homo sapiens, T-cell, 120 h): 134%
- EC50 (primary human T-cells [1]; Homo sapiens, T-cell, 120 h): 240 nM
- EC50 (primary human T-cells [2]): 148 nM

Compound: COC(=O)N1CCC(c2nnc(-c3ccc4c(c3)N(Cc3ccc(OC5CCCC5)cc3)C(=O)[C@@H](N)CS4(=O)=O)o2)C1 (stereo partly drawn) [Example 444, methyl 3-[5-[(3R)-3-amino-5-[[4-(cyclopentoxy)phenyl]methyl]-1,1,4-trioxo-2,3-dihydro-1λ^6,5-benzothiazepin-7-yl]-1,3,4-oxadiazol-2-yl]pyrrolidine-1-carboxylate]
- IC50 (hDGKalpha(1-735)-N-His): 6110 nM
- IC50 (hDGKzeta(1-928)-N-His): 1910 nM
- Emax (primary human T-cells [1]; Homo sapiens, T-cell, 120 h): 99%
- EC50 (primary human T-cells [1]; Homo sapiens, T-cell, 120 h): 2370 nM
- EC50 (primary human T-cells [2]): > 10000 nM

Compound: N[C@H]1CS(=O)(=O)c2cc(F)c(-c3noc(C4(CO)CCCO4)n3)cc2N(Cc2ccc(Oc3ccccc3)cc2)C1=O (stereo partly drawn) [Example 521, (3R)-3-amino-8-fluoro-7-[5-[2-(hydroxymethyl)tetrahydrofuran-2-yl]-1,2,4-oxadiazol-3-yl]-1,1-dioxo-5-[(4-phenoxyphenyl)methyl]-2,3-dihydro-1λ^6,5-benzothiazepin-4-one]
- IC50 (hDGKalpha(1-735)-N-His): 3000 nM
- IC50 (hDGKzeta(1-928)-N-His): 338 nM
- Emax (primary human T-cells [1]; Homo sapiens, T-cell, 120 h): 189%
- EC50 (primary human T-cells [1]; Homo sapiens, T-cell, 120 h): 622 nM
- EC50 (primary human T-cells [2]): 783 nM

Compound: CN1CCCC(F)(c2nc(-c3cc4c(cc3F)S(=O)(=O)C[C@H](N)C(=O)N4Cc3ccc(Oc4ccccc4)cc3)no2)C1 (stereo partly drawn) [Example 522, (3R)-3-amino-8-fluoro-7-[5-(3-fluoro-1-methyl-3-piperidyl)-1,2,4-oxadiazol-3-yl]-1,1-dioxo-5-[(4-phenoxyphenyl)methyl]-2,3-dihydro-1λ^6,5-benzothiazepin-4-one]
- IC50 (hDGKalpha(1-735)-N-His): 4070 nM
- IC50 (hDGKzeta(1-928)-N-His): 529 nM
- Emax (primary human T-cells [1]; Homo sapiens, T-cell, 120 h): 161%
- EC50 (primary human T-cells [1]; Homo sapiens, T-cell, 120 h): 782 nM
- EC50 (primary human T-cells [2]): 619 nM

Compound: CC(C)(C)c1nnc(-c2cc3c(cc2Cl)S(=O)(=O)C[C@H](N)C(=O)N3Cc2ccc(Cl)cc2)o1 [Example 523, (3R)-3-amino-7-(5-tert-butyl-1,3,4-oxadiazol-2-yl)-8-chloro-5-[(4-chlorophenyl)methyl]-1,1-dioxo-2,3-dihydro-1λ^6,5-benzothiazepin-4-one]
- IC50 (hDGKalpha(1-735)-N-His): 1290 nM
- IC50 (hDGKzeta(1-928)-N-His): 1510 nM
- Emax (primary human T-cells [1]; Homo sapiens, T-cell, 120 h): 45%
- EC50 (primary human T-cells [1]; Homo sapiens, T-cell, 120 h): 462 nM
- EC50 (primary human T-cells [2]): 5280 nM
